According to patent publication US9549946B2, “Materials and methods for preventing and treating microbe-mediated epithelial disorders” (priority 2002, dated 2017):

Test system: human intestinal epithelial cells
Assay: Epithelial transport function (Na+/H+ exchange, glucose transport)
Format: cell-based
Source text: The resistance of PEG-cultured human intestinal epithelial cells to the barrier-disrupting effects of P. aeruginosa, as judged by the maintenance of TEER, offers a practical approach to stabilizing tight junctional barrier function in the face of a challenge from invading pathogens. Further evidence of the therapeutic value of PEG 15-20 is that epithelial transport function (Na^+/H^+ exchange, glucose transport) is unaffected by this compound.

polyethylene glycol [PEG 15-20]
epithelial transport function (Na+/H+ exchange, glucose transport): unaffected
